We go through 24 compounds from patent US9458172B2, “Pyridinyl and pyrimidinyl sulfoxide and sulfone derivatives” (priority 2012, dated 2016).

For one assay, the system named is A2780 cells. Description: In-Vitro Cell Proliferation Assay (SRB).
The target of a further assay is NAMPT (Homo sapiens (Human), UniProt P43490). Description: Biochemical Inhibition Assay (NAMPT enzymatic reaction, NMN quantified by mass spectrometry). The conditions noted are these: 33 nM recombinant His-tagged NAMPT, 1 μM NAM, 30 min at rt. The method, then:
Assay 1: Biochemical Inhibition Assay
NAMPT protein purification. Recombinant His-tagged NAMPT was produced in E. coli cells, purified over a Ni column, and further purified over a size-exclusion column by XTAL Biostructures.
The NAMPT Enzymatic Reaction. The NAMPT enzymatic reactions were carried out in Buffer A (50 mM Hepes pH 7.5, 50 mM NaCl, 5 mM MgCl2, and 1 mM THP) in 96-well V-bottom plates. The compound titrations were performed in a separate dilution plate by serially diluting the compounds in DMSO to make a 100× stock. […] The compound and enzyme mixture was incubated for 15 min at rt, then 10 μL of 10× substrate and co-factors in Buffer A were added to the test well to make a final concentration of 1 μM NAM, […] 5-Phospho-D-ribose 1-diphosphate (PRPP), and 2.5 mM Adenosine 5′-triphosphate (ATP). The reaction was allowed to proceed for 30 min at rt, then was quenched with the addition of 11 μL of a solution of formic acid and L-Cystathionine to make a final concentration of 1% formic acid and 10 μM L-Cystathionine. Background and signal strength was determined by addition (or non-addition) of a serial dilution of NMN to a pre-quenched enzyme and cofactor mix.
Quantification of NMN. A mass spectrometry-based assay was used to measure the NAMPT reaction product, β-nicotinamide mononucleotide (NMN), and the internal control (L-Cystathionine). NMN and L-Cystathionine were detected using the services of Biocius Lifesciences with the RapidFire system. In short, the NMN and L-Cystathionine were bound to a graphitic carbon cartridge in 0.1% formic acid, eluted in 30% acetonitrile buffer, and injected into a Sciex 4000 mass spectrometer. The components of the sample were ionized with electrospray ionization and the positive ions were detected. […] The fragments are quantified and the analyzed by the following method.
Determination of IC50 Values. First, the NMN signal was normalized to the L-Cystathionine signal by dividing the NMN signal by the L-Cystathionine signal for each well. The signal from the background wells were averaged and subtracted from the test plates.

[1] abbreviates: Homo sapiens, A2780, 72 h, read-out: Cell Proliferation (IC50).
Where [2] appears, read: read-out: Cell Proliferation (IC50), A2780 cells, 72 h, sulforhodamine B.
The mark [3] stands for this setting: Homo sapiens, A2780, 72 h, read-out: Cell Proliferation (IC50), A2780 cells, 72 h, sulforhodamine B.

pIC50: −log10 of the molar value. Where two headings read alike, the source gives them in different places.

Sequence of NAMPT (P43490 whole entry): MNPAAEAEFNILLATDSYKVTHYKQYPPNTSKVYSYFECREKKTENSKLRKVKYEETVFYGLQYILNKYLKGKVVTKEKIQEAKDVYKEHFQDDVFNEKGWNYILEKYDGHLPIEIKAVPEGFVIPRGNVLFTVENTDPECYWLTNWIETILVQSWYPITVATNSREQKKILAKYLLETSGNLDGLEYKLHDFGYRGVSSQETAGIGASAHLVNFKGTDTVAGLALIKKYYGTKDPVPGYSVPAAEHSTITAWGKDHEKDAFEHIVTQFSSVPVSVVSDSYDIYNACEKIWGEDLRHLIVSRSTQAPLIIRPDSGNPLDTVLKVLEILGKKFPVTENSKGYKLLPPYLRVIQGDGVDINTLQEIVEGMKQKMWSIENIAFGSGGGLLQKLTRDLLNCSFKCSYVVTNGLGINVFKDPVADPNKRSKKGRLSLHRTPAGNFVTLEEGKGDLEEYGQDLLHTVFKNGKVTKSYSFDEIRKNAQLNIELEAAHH

For the compound `O=C(NCc1ccc(S(=O)(=O)c2ccc(N3CCOCC3)nc2)cn1)N1Cc2ccncc2C1` [Example 125, N-[[5-[(6-morpholino-3-pyridyl)sulfonyl]-2-pyridyl]methyl]-1,3-dihydropyrrolo[3,4-c]pyridine-2-carboxamide], the values for the pIC50 in the assay on A2780 cells (setting [1]) and on NAMPT were 7.99 and 7.85, respectively.
Taken in the same sequence, the figures for `CCS(=O)(=O)c1cccc(S(=O)(=O)c2ccc(CNC(=O)c3ccc4nccn4c3)nc2)c1` [Example 96, Imidazo[1,2-a]pyridine-6-carboxylic acid [5-(3-ethanesulfonyl-benzenesulfonyl)-pyridin-2-ylmethyl]-amide] were 7.42 and 7.71.
As for `O=C(NCc1ccc([S+]([O-])c2cc(F)cc(F)c2)cn1)c1ccc2nccn2c1` (racemic) [Example 58, Imidazo[1,2-a]pyridine-6-carboxylic acid [5-(3,5-difluoro-benzenesulfinyl)-pyridin-2-ylmethyl]-amide (racemic)], the figures for the pIC50 in the assay with A2780 cells (setting [2]) and at NAMPT were 6.02 and 6.39, respectively.
Consider `O=C(NCc1ccc(S(=O)(=O)c2ccc(N3CCOCC3)cc2)cn1)c1cnc2nccn2c1` [Example 38, Imidazo[1,2-a]pyrimidine-6-carboxylic acid [5-(4-morpholin-4-yl-benzenesulfonyl)-pyridin-2-ylmethyl]-amide], for which the pIC50 in the assay with A2780 cells (setting [3]) is 8.00; on NAMPT, 8.68.
The like results for `CCn1cc(S(=O)(=O)c2ccc(CNC(=O)N3Cc4ccncc4C3)nc2)cn1` [Example 177, N-[[5-(1-ethylpyrazol-4-yl)sulfonyl-2-pyridyl]methyl]-1,3-dihydropyrrolo[3,4-c]pyridine-2-carboxamide] were, in that order, 6.58 and 7.49.
Regarding `O=C(NCc1ccc([S+]([O-])c2cc(F)cc(F)c2)cn1)c1ccc2nccn2c1` (racemic) [Example 55, Imidazo[1,2-a]pyridine-6-carboxylic acid [5-(3,5-difluoro-benzenesulfinyl)-pyridin-2-ylmethyl]-amide (racemic)], the pIC50 in the assay with A2780 cells (setting [2]) was 7.38; at NAMPT, 7.80.
As to `O=C(NCc1ccc(S(=O)(=O)c2ccc(C(F)(F)F)nc2)cn1)c1cc2ccncc2o1` [Example 79, Furo[2,3-c]pyridine-2-carboxylic acid [5-(6-trifluoromethyl-pyridine-3-sulfonyl)-pyridin-2-ylmethyl]-amide], the pIC50 was 6.91 with A2780 cells (setting [1]) and 7.69 at NAMPT.
The like results for `CN(C)c1ccc(S(=O)(=O)c2ccc(CNC(=O)c3cnc4nccn4c3)nc2)cn1` [Example 69, Imidazo[1,2-a]pyrimidine-6-carboxylic acid (5-(6-dimethylamino-pyridine-3-sulfonyl)-pyridin-2-ylmethyl]-amide] were, in that order, 7.59 and 8.27.
Taken in the same sequence, the figures for `O=C(NCc1ccc(S(=O)(=O)c2ccc(N3CCOCC3)cc2)cn1)c1cnc2[nH]ncc2c1` [Example 31, 1H-Pyrazolo[3,4-b]pyridine-5-carboxylic acid [5-(4-morpholin-4-yl-benzenesulfonyl)-pyridin-2-ylmethyl]-amide] were 8.14 and 7.71.
Taken in the same sequence, the figures for `O=C(NCc1ccc(S(=O)(=O)c2cccc(OC(F)(F)F)c2)cn1)c1cnc2nccn2c1` [Example 20, Imidazo[1,2-a]pyrimidine-6-carboxylic acid [5-(3-trifluoromethoxy-benzenesulfonyl)-pyridin-2-ylmethyl]-amide] were 7.94 and 8.47.
For the compound `O=C(NCc1ccc(S(=O)(=O)C2CCN(CC(F)(F)F)CC2)cn1)N1Cc2ccncc2C1` [Example 143, N-[[5-[[1-(2,2,2-trifluoroethyl)-4-piperidyl]sulfonyl]-2-pyridyl)methyl]-1,3-dihydropyrrolo[3,4-c]pyridine-2-carboxamide], the pIC50 in the assay on A2780 cells (setting [1]) is 7.21; on NAMPT, 6.95.
Taken in the same sequence, the figures for `O=C(NCc1ccc([S+]([O-])c2cccc(OC(F)(F)F)c2)cn1)N1Cc2ccncc2C1` (racemic) [Example 89, 1,3-Dihydro-pyrrolo[3,4-c]pyridine-2-carboxylic acid [5-(3-trifluoromethoxy-benzenesulfinyl)-pyridin-2-ylmethyl]-amide (racemic)] were 7.73 and 8.10.
Taken in the same sequence, the figures for `O=C(NCc1ncc(S(=O)(=O)c2ccccc2)cn1)c1cc2cnccc2[nH]1` [Example 7, 1H-Pyrrolo[3,2-c]pyridine-2-carboxylic acid (5-benzenesulfonyl-pyrimidin-2-ylmethyl)-amide] were 6.88 and 6.82.
The like results for `CCS(=O)(=O)c1cccc(S(=O)(=O)c2ccc(CNC(=O)c3cc4ccncc4o3)nc2)c1` [Example 109, N-[[5-(3-ethylsulfonylphenyl)sulfonyl-2-pyridyl]methyl]furo[2,3-c]pyridine-2-carboxamide] were, in that order, 7.82 and 8.17.
Consider `O=C(NCc1ccc([S+]([O-])c2cc(F)cc(F)c2)cn1)c1cnc2[nH]ncc2c1` (racemic) [Example 15, 1H-Pyrazolo[3,4-b]pyridine-5-carboxylic acid [5-(3,5-difluoro-benzenesulfinyl)-pyridin-2-ylmethyl]-amide (racemic)], for which the values for the pIC50 in the assay on A2780 cells (setting [1]) and at NAMPT were 6.51 and 6.45, respectively.
In the case of `O=C(NCc1ccc(S(=O)(=O)c2cc(F)cc(F)c2)cn1)N1Cc2ccncc2C1` [Example 73, 1,3-Dihydro-pyrrolo[3,4-c]pyridine-2-carboxylic acid [5-(3,5-difluoro-benzenesulfonyl)-pyridin-2-ylmethyl]-amide], the figures for the pIC50 in the assay with A2780 cells (setting [1]) and on NAMPT were 7.12 and 7.76, respectively.
`Cn1ncc2c1CN(C(=O)NCc1ccc(S(=O)(=O)c3ccccc3)cn1)C2` [Example 179, N-[[5-(benzenesulfonyl)-2-pyridyl]methyl]-1-methyl-4,6-dihydropyrrolo[3,4-c]pyrazole-5-carboxamide]: the figures for the pIC50 in the assay on A2780 cells (setting [3]) and at NAMPT were 5.70 and 5.86, respectively.
As for `CCN(C)c1ncc(S(=O)(=O)c2ccc(CNC(=O)c3ccc4nccn4c3)nc2)s1` [Example 145, N-[[5-[2-[ethyl(methyl)amino]thiazol-5-yl]sulfonyl-2-pyridyl]methyl]imidazo[1,2-a]pyridine-6-carboxamide], the pIC50 was 8.54 in the assay on A2780 cells (setting [1]) and 8.00 on NAMPT.
Take `O=C(NCc1ccc(S(=O)(=O)C2CCN(C3CCOC3)CC2)cn1)c1cc2ccncc2o1` (stereo not drawn) [Example 128, N-[[5-[(1-tetrahydrofuran-3-yl-4-piperidyl)sulfonyl]-2-pyridyl]methyl]furo[2,3-c]pyridine-2-carboxamide]: the pIC50 is 7.60 in the assay with A2780 cells (setting [1]) and 7.14 on NAMPT.
For `O=C(NCc1ncc(S(=O)(=O)c2cccc(C(F)(F)F)c2)cn1)c1cc2ccncc2o1` [Example 81, Furo[2,3-c]pyridine-2-carboxylic acid [5-(3-trifluoromethyl-benzenesulfonyl)-pyrimidin-2-ylmethyl]-amide], the pIC50 is 7.73 with A2780 cells (setting [1]) and 7.91 at NAMPT.
Take `CN(C)c1ccc(S(=O)(=O)c2ccc(CNC(=O)c3cnc4[nH]ncc4c3)nc2)cn1` [Example 84, 1H-Pyrazolo[3,4-b]pyridine-5-carboxylic acid [5-(6-dimethylamino-pyridine-3-sulfonyl)-pyridin-2-ylmethyl]-amide]: the figures for the pIC50 in the assay with A2780 cells (setting [1]) and at NAMPT were 7.69 and 7.56, respectively.
Taken in the same sequence, the figures for `O=C(NCc1ccc(S(=O)(=O)c2ccc(N3CCOCC3)cc2)cn1)c1cc2ccncc2o1` [Example 37, Furo[2,3-c]pyridine-2-carboxylic acid [5-(4-morpholin-4-yl-benzenesulfonyl)-pyridin-2-ylmethyl]-amide] were 9.00 and 8.46.
`O=C(NCc1ccc(S(=O)(=O)C2CCN(C3CCOCC3)CC2)cn1)N1Cc2ccncc2C1` [Example 119, N-[[5-[(1-tetrahydropyran-4 yl-4-piperidyl)sulfonyl]-2-pyridyl]methyl]-1,3-dihydropyrrolo[3,4-c]pyridine-2-carboxamide]: the pIC50 with A2780 cells (setting [3]) was 7.84; on NAMPT, 7.43.
On to `O=C(NCc1ccc(S(=O)(=O)N2CCC(N3CCCC3)CC2)cn1)c1cc2ccncc2o1` [Example 91, Furo[2,3-c]pyridine-2-carboxylic acid [5-(4-pyrrolidin-1-yl-piperidine-1-sulfonyl)-pyridin-2-ylmethyl]-amide], for which the results for the pIC50 in the assay on A2780 cells (setting [1]) and on NAMPT were 7.34 and 7.32, respectively.
